Consider 27 molecules from patent publication EP2790511B1 (Merck Sharp & Dohme Corp., priority 2011, dated 2013).

pIC50: −log10 of the molar value.

One experiment addresses T1, hROMK (hKir1.1) (Homo sapiens, UniProt P48048).
T1 construct: expressed in transfected cells
T1 sequence (P48048 1-391): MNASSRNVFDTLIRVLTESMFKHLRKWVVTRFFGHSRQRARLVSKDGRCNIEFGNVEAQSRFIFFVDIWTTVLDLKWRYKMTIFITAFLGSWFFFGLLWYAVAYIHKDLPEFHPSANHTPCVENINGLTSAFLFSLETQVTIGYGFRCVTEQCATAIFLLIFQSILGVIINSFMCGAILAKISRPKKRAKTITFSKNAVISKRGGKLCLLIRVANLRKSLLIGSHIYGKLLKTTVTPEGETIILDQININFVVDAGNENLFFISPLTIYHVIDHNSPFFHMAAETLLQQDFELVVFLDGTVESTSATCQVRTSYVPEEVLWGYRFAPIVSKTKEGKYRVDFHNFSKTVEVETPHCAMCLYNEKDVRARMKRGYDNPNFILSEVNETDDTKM
Kind of experiment: Thallium Flux Assay. Format: cell-based. The conditions noted are these: HEK293 cells stably expressing hROMK (hKir1.1), FLIPR-Tetra; read-out: Thallium Flux IC50. In outline:
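HEK293 cells stably expressing hROMK, loaded with FluxOR dye 90 min at ambient temperature, then compound 30 min with 0.3 mM ouabain in probenecid buffer pH 7.4.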
Regarding `Cc1c([C@@H]2CN3CCN(C(=O)Cc4ccc(-n5cnnn5)nc4)C[C@H]3CS2)ccc2c1COC2=O` [Example 166, 4-methyl-5-[(3R,9aS)-8-{[6-(1H-tetrazol-1-yl)pyridin-3-yl]acetyl}octahydropyrazino[2,1-c][1,4]thiazin-3-yl]-2-benzofuran-1(3H)-one], the pIC50 was 6.42. The same measure, in the same setting: the same measure for `N#Cc1c(F)cc([C@@H]2CN3CCN(C(=O)Cc4ccc(-n5cnnn5)nc4)C[C@H]3CO2)cc1F` [Example 110, 2,6-difluoro-4-[(3R,9aS)-8-{[6-(1H-tetrazol-1-yl)pyridin-3-yl]acetyl}octahydropyrazino[2,1-c][1,4]oxazin-3-yl]benzonitrile]: 6.43.

As to `Cc1c([C@H]2CN3CCN(C(=O)Cc4cnc(-n5cnnn5)nc4C(F)(F)F)C[C@H]3CO2)ccc(F)c1C#N` [Example 158, 6-fluoro-2-methyl-3-[(3S,9aS)-8-{[2-(1H-tetrazol-1-yl)-4-(trifluoromethyl)pyrimidin-5-yl]acetyl}octahydropyrazino[2,1-c][1,4]oxazin-3-yl]benzonitrile], the pIC50 is 6.70. On to `COc1c([C@@H]2CN3CCN(C(=O)Cc4ccc(-n5cnnn5)nc4)C[C@H]3CO2)ccc(F)c1C#N` [Example 60, 6-fluoro-2-methoxy-3-[(3R,9aS)-8-{[6-(1H-tetrazol-1-vl)pvridin-3-yl]acetyl}octahydropyrazino[2,1-c][1,4]oxazin-3-yl]benzonitrile], for which the pIC50 was 6.85. Same read-out and setting: the same measure for `COc1c([C@@H]2CN3CCN(C(=O)Cc4cnc(-n5cnnn5)nc4)C[C@H]3CO2)ccc(F)c1C#N` [Example 140, 6-fluoro-2-methoxy-3-[(3R,9aS)-8-{[2-(1H-tetrazol-1-vl)pvrimidin-5-yl]acetyl}octahydropyrazino[2,1-c][1,4]oxazin-3-yl]benzonitrile]: 6.92; for `Cc1c([C@@H]2CN3CCN(C(=O)Cc4cnc(-n5cnnn5)nc4)C[C@@H]3CO2)ccc2c1COC2=O` [Example 122, 4-methyl-5-[(3R,9aR)-8-{[2-(1H-tetrazol-1-yl)pyrimidin-5-yl]acetyl}octahydropyrazino[2,1-c][1,4]oxazin-3-yl]-2-benzofuran-1(3H)-one]: 6.41; for `Cc1nc(-n2cnnn2)nc(C)c1CC(=O)N1CCN2C[C@@H](c3ccc(F)c(C#N)c3C)OC[C@H]2C1` [Example 152, 3-[(3R,9aR)-8-{[4,6-dimethyl-2-(1H-tetrazol-1-yl)pyrimidin-5-yl]acetyl}octahydropyrazino[2,1-c][1,4]oxazin-3-yl]-6-fluoro-2-methylbenzonitrile]: 6.70. On the same count and under the same terms, the same measure for `Cc1c([C@H]2CN3CCN(C(=O)Cc4cncc(-n5cnnn5)c4)C[C@H]3CO2)ccc(F)c1C#N` [Example 101, 6-fluoro-2-methyl-3-[(3S,9aS)-8-{[5-(1H-tetrazol-1-yl)pyridin-3-y]acetyl}octahydropyrazino[2,1-c][1,4]oxazin-3-yl]benzonitrile]: 6.74; for `Cc1c([C@H]2CN3CCN(C(=O)Cc4ccc(-n5cnnn5)nc4)C[C@H]3CS2)ccc2c1COC2=O` [Example 167, 4-methyl-5-[(3S,9aS)-8-{[6-(1H-tetrazol-1-yl)pyridin-3-yl]acetyl}octahydropyrazino[2,1-c][1,4]thiazin-3-yl]-2-benzofuran-1(3H)-one]: 6.38; for `O=C(Cc1cnc(-n2cnnn2)nc1)N1CCN2C[C@@H](c3ccc4nonc4c3)OC[C@@H]2C1` [Example 175, (3R,9aS)-3-(2,1,3-benzoxadiazol-5-yl)-8-{[2-(1H-tetrazol-1-vl)pvrimidin-5-yl]acetyl}octahydropyrazino[2,1-c][1,4]oxazine]: 6.28. Take `N#Cc1cc([C@@H]2CN3CCN(C(=O)Cc4ccc(-n5cnnn5)cn4)C[C@H]3CO2)c(F)cc1F` [Example 82, 2,4-difluoro-5-[(3R,9aS)-8-{[5-(1H-tetrazol-1-yl)pyridin-2-yl]acetyl}octahydropyrazino[2,1-c][1,4]oxazin-3-yl]benzonitrile]: the pIC50 was 6.47. On the same count and under the same terms, the same measure for `N#Cc1c(F)ccc([C@H]2CN3CCN(C(=O)Cc4ccc(-n5cnnn5)nc4)C[C@H]3CO2)c1Cl` [Example 10, 2-chloro-6-fluoro-3-[(3S,9aS)-8-{[6-(1H-tetrazol-1-yl)pvridin-3-yl]acetyl}octahydropyrazino[2,1-c][1,4]oxazin-3-yl]benzonitrile]: 7.15; for `N#Cc1c(F)ccc([C@H]2CN3CCN(C(=O)Cc4cnc(-n5cnnn5)nc4)C[C@@H]3CO2)c1Cl` [Example 126, 2-chloro-6-fluoro-3-[(3S,9aR)-8-{[2-(1H-tetrazol-1-yl)pyrimidin-5-yl]acetyl}octahydropyrazino[2,1-c][1,4]oxazin-3-yl]benzonitrile]: 6.85. Turning to `O=C1OCc2cc([C@H]3CN4CCN(C(=O)Cc5ccc(-n6cnnn6)cn5)C[C@H]4CO3)ccc21` [Example 28, 5-[(3S,9aS)-8-{[5-(1H-tetrazol-1-yl)pyridin-2-yl]acetyl}octahydropyrazino[2,1-c][1,4]oxazin-3-yl]-2-benzofuran-1(3H)-one], the pIC50 was 6.74. Take `O=C(Cc1ccc(-n2cnnn2)cn1)N1CCN2C[C@@H](c3ccc4nonc4c3)OC[C@@H]2C1` [Example 178, (3R,9aS)-3-(2,1,3-benzoxadiazol-5-yl)-8-{[5-(1H-tetrazol-1-vl)pvridin-2-yl]acetyl}octahydropyrazino[2,1-c][1,4]oxazine]: the pIC50 was 6.46.

Consider `COc1cc([C@H]2CN3CCN(C(=O)Cc4ccc(-n5cnnn5)nc4)C[C@@H]3CO2)ccc1C#N` [Example 39, 2-methoxy-4-[(3S,9aR)-8-{[6-(1H-tetrazol-1-yl)pyridin-3-yl]acetyl}octahydropyrazino[2,1-c][1,4]oxazin-3-yl]benzonitrile], for which the negative logarithm of the IC50 (pIC50) is 6.59.

The same experiment, now with this note: Thallium Flux IC50.
For `C[C@@H]1Cc2cc([C@@H]3CN4CCN(C(=O)Cc5cnc(-n6cnnn6)nc5)C[C@H]4CO3)ccc2C(=O)O1` [Example 19], the pIC50 was 6.80. Same read-out and setting: the same measure for `Cc1c([C@H]2CN3CCN(C(=O)Cc4ccc(-n5cnnn5)nc4)C[C@@H]3CO2)ccc2c1COC2=O` [Example 24, 4-methyl-5-[(3S,9aR)-8-{[6-(1H-tetrazol-1-yl)pyridin-3-yl]acetyl}octahydropyrazino[2,1-c][1,4]oxazin-3-yl]-2-benzofuran-1(3H)-one]: 6.80; for `Cc1c([C@H]2CN3CCN(C(=O)Cc4ccc(-n5cnnn5)cn4)C[C@H]3CO2)ccc2c1COC2=O` [Example 29, 4-methyl-5-[(3S,9aS)-8-{[5-(1H-tetrazol-1-yl)pyridin-2-yl]acetyl}octahydropyrazino[2,1-c][1,4]oxazin-3-yl]-2-benzofuran-1(3H)-one]: 6.96; for `O=C1OCCc2cc([C@@H]3CN4CCN(C(=O)Cc5cnc(-n6cnnn6)nc5)C[C@H]4CO3)ccc21` [Example 145, 6-[(3R,9aS)-8-{[2-(1H-tetrazol-1-yl)pyrimidin-5-yl]acetyl}octahydropyrazino[2,1-c][1,4]oxazin-3-yl]-3,4-dihydro-1H-isochromen-1-one]: 6.62. Same read-out and setting: in the case of `COc1ccc([C@H]2CN3CCN(C(=O)Cc4ccc(-n5cnnn5)nc4)C[C@H]3CO2)c(C)c1C#N` [Example 49, 6-methoxy-2-methyl-3-[(3S,9aS)-8-{[6-(1H-tetrazol-1-vl)pvridin-3-yl]acetyl}octahydropyrazino[2,1-c][1,4]oxazin-3-yl]benzonitrile] it was 6.54; in that of `Cc1cc(-n2cnnn2)cnc1CC(=O)N1CCN2C[C@@H](c3ccc(F)c(C#N)c3C)OC[C@@H]2C1` [Example 84, 6-fluoro-2-methyl-3-[(3R,9aS)-8-{[3-methyl-5-(1H-tetrazol-1-vl)pvridin-2-yl]acetyl}octahydropyrazino[2,1-c][1,4]oxazin-3-yl]benzonitrile], 6.64. Still for that read-out and setting: in the case of `Cc1c([C@H]2CN3CCN(C(=O)Cc4cnc(-n5cnnn5)nc4)C[C@@H]3CO2)ccc(F)c1C#N` [Example 9, 6-fluoro-2-methyl-3-[(3S,9aR)-8-{[2-(1H-tetrazol-1-yl)pyrimidin-5-yl]acetyl}octahydropyrazino[2,1-c][1,4]oxazin-3-yl]benzonitrile] it was 6.74. For the molecule `Cc1c([C@@H]2CN3CCN(C(=O)Cc4ccc(-n5cnnn5)cn4)C[C@H]3CO2)csc1C#N` [Example 70, 3-methyl-4-[(3R,9aS)-8-{[5-(1H-tetrazol-1-yl)pyridin-2-yl]acetyl}octahydropyrazino[2,1-c][1,4]oxazin-3-yl]thiophene-2-carbonitrile], the pIC50 is 6.57. Same read-out and setting: in the case of `Cc1c([C@H]2CN3CCN(C(=O)Cc4ccc(-n5cnnn5)nc4)C[C@H]3CO2)ccc2c1COC2=O` [Example 21, 4-methyl-5-[(3S,9aS)-8-{[6-(1H-tetrazol-1-yl)pyridin-3-yl]acetyl}octahydropyrazino[2,1-c][1,4]oxazin-3-yl]-2-benzofuran-1(3H)-one] it was 7.00; in that of `O=C1OCc2c1ccc([C@@H]1CN3CCN(C(=O)Cc4ccc(-n5cnnn5)nc4)C[C@H]3CO1)c2Cl` [Example 46, 4-chloro-5-[(3R,9aS)-8-{[6-(1H-tetrazol-1-yl)pyridin-3-yl]acetyl}octahydropyrazino[2,1-c][1,4]oxazin-3-yl]-2-benzofuran-1(3H)-one], 6.17.

The experiment is the same for the next values; noted with them: read-out: Thallium Flux IC50.
Regarding “2,6-difluoro-3-[3R,9aS)-8-{[2-methyl-6-(1H-tetrazol-1-vl)pvridin-3-yl]acetyl}octahydropyrazino[2,1-c][1,4]oxazin-3-yl]benzonitrile [Example 89]”, the pIC50 was 7.15.

As a reminder, the pIC50 is the negative decadic logarithm of the IC50, by convention in mol/L.
